Measured values: ChEMBL document CHEMBL1133230, “1-Aminomethylisoquinoline-4-carboxylates as novel dipeptidylpeptidase IV inhibitors” (Bioorg Med Chem Lett, 2000)
pIC50: −log10 of the molar value.

molecular target: Dipeptidyl peptidase 4 (Homo sapiens, UniProt P27487); experiment: In vitro inhibition of Dipeptidylpeptidase IV from Caco-2 (human colon carcinoma) cells.; type: cell-based
Sequence (P27487 whole entry): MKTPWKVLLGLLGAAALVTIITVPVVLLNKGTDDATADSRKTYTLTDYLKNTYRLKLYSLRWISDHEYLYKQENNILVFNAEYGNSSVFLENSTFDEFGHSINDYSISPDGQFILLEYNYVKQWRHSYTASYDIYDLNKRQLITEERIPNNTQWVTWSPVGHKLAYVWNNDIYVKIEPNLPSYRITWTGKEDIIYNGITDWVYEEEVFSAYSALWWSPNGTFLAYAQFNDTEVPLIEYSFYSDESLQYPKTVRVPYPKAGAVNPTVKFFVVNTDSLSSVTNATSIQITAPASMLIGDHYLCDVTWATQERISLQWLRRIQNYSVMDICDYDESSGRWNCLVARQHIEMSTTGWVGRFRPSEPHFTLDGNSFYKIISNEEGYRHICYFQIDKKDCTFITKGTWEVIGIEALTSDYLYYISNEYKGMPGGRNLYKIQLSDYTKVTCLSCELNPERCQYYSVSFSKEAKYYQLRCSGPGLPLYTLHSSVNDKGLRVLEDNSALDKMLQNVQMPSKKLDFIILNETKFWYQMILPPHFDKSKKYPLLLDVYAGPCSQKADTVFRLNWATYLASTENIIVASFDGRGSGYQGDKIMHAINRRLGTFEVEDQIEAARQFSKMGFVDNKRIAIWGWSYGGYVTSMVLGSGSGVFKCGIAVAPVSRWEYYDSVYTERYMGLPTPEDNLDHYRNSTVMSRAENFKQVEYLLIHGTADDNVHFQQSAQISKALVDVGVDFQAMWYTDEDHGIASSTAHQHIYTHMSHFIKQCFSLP

pIC50 | Compound
3.56 | COc1cc2c(C=O)cnc(CN)c2cc1OC
3.02 | CCOC(=O)c1cnc(CN(C)C)c2cc(OC)c(OC)cc12
3.99 | COc1cc2c(C(=O)O)cnc(CN)c2cc1OC
5.47 | CCOC(=O)c1cnc(CN)c2cc(OC)c(OC)cc12
5.62 | CCOC(=O)c1cnc(CN)c2c(OC)ccc(OC)c12
3.77 | COc1cc2c(C(N)=O)cnc(CN)c2cc1OC
3.13 | CCOC(=O)c1cnc(CCN)c2cc(OC)c(OC)cc12
3.14 | CCOC(=O)c1cnc(CNC)c2cc(OC)c(OC)cc12
4.74 | CCOC(=O)/C=C/c1cnc(CN)c2cc(OC)c(OC)cc12
5.08 | CCCOc1cc2c(CN)ncc(C(=O)OCC)c2cc1OC
4.28 | CCOC(=O)CCc1cnc(CN)c2cc(OC)c(OC)cc12
4.50 | COc1cc2c(CO)cnc(CN)c2cc1OC
4.74 | CCOC(=O)c1cnc(CN)c2cc(OC)c(OC)c(OC)c12
5.17 | CCOC(=O)c1cnc(CN)c2cc(OCC)c(OC)cc12
4.85 | CCOC(=O)c1cnc(CN)c2cc(O)c(OC)cc12
4.29 | CCCNC(=O)c1cnc(CN)c2cc(OC)c(OC)cc12
4.77 | CCOC(=O)Cc1cnc(CN)c2cc(OC)c(OC)cc12
3.68 | CCOC(=O)c1cnc(CN)c2ccc(OC)cc12
5.96 | CCOC(=O)c1cnc(CN)c2c(OC)c(OC)c(OC)cc12
5.64 | CCOC(=O)Nc1cnc(CN)c2cc(OC)c(OC)cc12
5.33 | CCOC(=O)c1cnc(CN)c2cc(OC)c(OCC)cc12
